According to BindingDB's records for doi:10.1016/0960-894X(95)00215-F (n/a, 1995):

Target: Phospholipase A2 group IIA
Experiment: Concentration required for in vitro inhibitory activity against human type II phospholipase A2

| Compound | IC50 [µM] |
| --- | --- |
| CCOC(=O)[C@@]1(Cc2ccccc2)S[C@@H](F)C(C)(C)C1=O | 4.09 |
| CCOC(=O)[C@@]1(Cc2ccccc2)S[C@H](F)C(C)(C)C1=O | 0.676 |
